1 substance from publication PMC8412337, “Alpha-single chains of collagen type VI inhibit the fibrogenic effects of triple helical collagen VI in hepatic stellate cells” (PLoS ONE, 2021) can be followed below.

Type in all cases: cell-based
The test system of test [1] is primary rat HSC. The experiment in a line: FACS analysis of apoptosis (propidium iodide DNA content). As for the experimental part:
Activated HSC (third passage) were serum starved for 24 h in standard medium without FBS (starving medium), followed by dissociation with 500 μl 0.05% trypsin-EDTA (Biochrom, Berlin, Germany) and neutralization with 30 ml starving medium containing 1 g/l soybean trypsin inhibitor and 1 g/l ovalbumin. Alternatively, cells were scraped carefully with a cell-scraper (Costar, Cambridge, MA, USA) to exclude any potential effect of trypsin. After centrifugation at 800 x g for 10 min, cells were washed twice with 20 ml PBS (w/o Ca^2+, Mg^2+; Biochrom, Berlin, Germany), resuspended in starving medium and plated at a density of 1.5-2x10^6 in 1.7 ml starving medium in 6-well plates (NUNC, Wiesbaden, Germany). Cells were then treated with starving medium, soluble CI or CVI (both at a final concentration of 30 mg/l), or 10% FBS. For quantification of spreading, cells that had attached were counted 12 hours after plating and spreading efficiency was determined as percentage of plated cells in each group. De-novo DNA synthesis and apoptosis were assessed by morphological criteria, Cell death detection ELISA and FACS analysis as described below. […] After blocking the cells 1h with DMEM+1% FBS, the cells were incubated with primary antibodies against a-actin (Sigma-Aldrich, Taufkirchen, Germany, #A2547; dilution 1:200) and GFAP (Sigma-Aldrich, #G9269; dilution 1:20) followed by a washing step with PBS and the incubation with fluorescence-labeled secondary antibodies (Alexa Fluor 546 & Alexa Fluor 488, Molecular Probes, Eugene, USA, #A11030 & #A11034; dilution 1:100). […] Cells were analyzed by fluorescence microscopy (Zeiss, Jena, Germany; Kodak Ektachrome P1600 and a quantitative staining analysis was performed using Image J software (version 1.50i; National Institutes of Health, Bethesda, […], USA).
10^5 of freshly set cells were treated with starving medium, CI, CVI or 10% FBS for 24 or 48 hours as described before. […] Fixed cells were stained with propidium iodide (50 mg/l) in a final volume of 1 ml before being subjected to fluorescence activated cell sorting (FACS) analysis.

The test system of test [2] is primary rat HSC. Kind of test: Cell Death Detection ELISA (oligonucleosomal DNA fragments). As to conditions: OD of sample divided by OD of 10% FBS group, three independent experiments. As to the method:
10^5 cells were seeded in 6-well plates and treated with starving medium or medium plus CI, CVI or 10% FBS. After 24 or 48 h floating and adherent cells were pooled, and lysed with 500 μl of 1% SDS, 10 mM Tris, pH 7.4 (lysis buffer), for 30 min at 4°C. Lysed cells were transferred to 1.5 ml Eppendorf tubes and centrifuged at 13,000 rpm for 20 min, to separate low molecular weight DNA (oligonucleosome-sized fragments derived from apoptotic cells) from high molecular weight DNA (from viable cells). 400 μl of the supernatant containing oligonucleosomes were transferred to another Eppendorf tube and diluted 1:5 with lysis buffer. 100 μl aliquots were used for the Cell Death Detection ELISA, which was performed according to the manufacturer’s instructions (Boehringer Mannheim, Germany). In brief, antibodies against histones were coated onto 96-wells, 100 μl lysate-samples containing oligonucleotides and histones were added and incubated for one hour. After washing, wells were incubated with anti-double strand DNA antibody coupled to peroxidase for one hour. After reaction with peroxidase substrate, absorbance was measured at 405 nm using an ELISA reader. Background values (lysis-buffer alone) were subtracted, and results are shown as enrichment factor [enrichment factor: OD (optical density) of the sample (apoptotic cells) divided by the OD of the corresponding control (viable cells, 10% FBS-group). A defined positive control was prepared using a hypertonic buffer, containing 10 mM Tris, 400 mM NaCl, 5 mM CaCl2 and 10 mM MgCl2, instead of starving medium.
(In general: An ELISA detects its analyte on a solid surface through an enzyme-linked reagent.)

A further test relates to primary rat HSCs. The experiment in a line: [3H]-thymidine incorporation, de-novo DNA synthesis. As to conditions: primary rHSCs.
In the next test the test system is CFSC (rat HSC cell line). The description is as above. On the set-up: proliferative effect of reconstituted CVI after denaturation and refolding: dose or concentration left out as unconfirmed. As for the experimental part: Immediately before use, guanidine hydrochloride (6 mol/l) was cleared over night by activated charcoal (Merck, Darmstadt, Germany) and adjusted to pH 8.0 by adding 50 mmol/l tris(hydroxymethyl)aminomethane (Tris). Freeze dried CVI (10 mg/ml) was mixed with 1 ml Tris-buffered guanidine-hydrochloride, incubated at room temperature for 1 h with frequent thorough vortex followed by 1 h at 37°C. The buffer from the clear supernatant after centrifugation (10.000 x g, 10 min, 4°C) was replaced for 150 mmol/l HAc by gelfiltration (Sephadex-G25; GE Healthcare, Munich, Germany). This procedure regains the biological activity of CVI on CFSC (S1 Fig).
5x10^3CFSC in 100 μl 10% FBS were seeded into a 96-well flat-bottom tissue culture plate (Nunc, Roskilde, Denmark). After 24 hours, medium was completely removed, and cells were rinsed with 200 μl phosphate-buffered saline and 100 μl standard medium containing only 0.25% FBS were added. Cells were cultured for additional 24 h prior to treatment. Synchronized microcultures in 96-well plates were treated for 2 hours in reduction medium. […] [^3H]-thymidine incorporation was measured as described before. […] After neutralization with 800 mmol/l HCl, lysates were collected to a glassfibre mat and the de-novo DNA synthesis was assessed by liquid scintillation (LKB Wallac, Bromma, Sweden) and the radioactive decay was counted (for) a minute (cpm).

In the case of “CVI: Human collagen VI isolated from placentas by pepsin digestion; triple helical, soluble”, the “fold less apoptosis compared to the CI-treated group” value in the test with primary rat HSC [1] (FACS, CVI-treated versus CI-treated group, p<0.05) is on record as “approximately 3 fold”. Further, in the test with primary rat HSC [1] (serum-starved primary rat HSC, text: within 24 hours, Fig 1C legend: 48 h, propidium iodide, three independent experiments), the “percentage of apoptotic cells (FACS)” value worked out at 25%. In addition, the “enrichment factor of oligonucleosomal fragments” value came out at 2 in the test on primary rat HSC [2] (after 24 hours) and 6 in the test on primary rat HSC [2] (after 48 hours). The “de-novo DNA synthesis ([3H]-thymidine incorporation)” value in the test with primary rat HSCs (CVI at 10 μg/ml, within 24 hours, three independent experiments) is reported as “stimulated a robust de-novo DNA synthesis”; with CFSC (rat HSC cell line) (24 h, n = three independent experiments) it was “induced a comparable increase in de-novo DNA synthesis”. The “de-novo DNA synthesis ([3H]-thymidine incorporation) at increasing concentration” value with primary rat HSCs (CVI from 10 μg/ml up to 100 μg/ml, concentration dependent) is on record as “equaling the effects of 10% FBS”. Moreover, the “proliferative effect of reconstituted CVI after denaturation and refolding” value with CFSC (rat HSC cell line) (three independent experiments (S1 Fig)) is on record as “regains its biological activity”.
